Results: patent publication US5457030A, “Method and composition for determining antimicrobial susceptibility of the majority clinically significant Gram postitive organism” (MicroScan, Inc., priority 1993, dated 1995)
In brackets after ≈: the same amount, converted by molar mass. Like-named read-outs stand apart in the source and are kept apart here.

Assays:
Enterococcus faecalis [1] = test: Percent fluorescence (growth) in wells containing antimicrobial agents, Example 1 (Table 6); assay type: cell-based; conditions: for activity at 32 µg/mL: 32 μg/mL
Experimental: (§1) A primary inoculum suspension of a bacterial isolate in saline-pluronic, equivalent to a 0.5 McFarland turbidity standard is prepared. The final inoculum suspension is prepared by diluting a 0.3 ml aliquot of the primary suspension in 25 ml of Rapid Pos Inoculum Broth (B1015-14, Baxter Diagnostics Inc., MicroScan Division, West Sacramento, Calif.). A 115 μl of the final inoculum is added to the growth compartment which contains dried material of fluorogenic enzyme substrates equivalent to 0.023 mM leucine-7-amido-4-methylcoumarin, 0.012 mM phenylalanine-7-amido-4-methylcoumarin and 0.058 mM methylumbelliferyl phosphate and 1.15 mM HEPES buffer at pH 7.0. The final inoculum is also added to a number of compartments containing dried material identical to that in the growth well and different concentrations of an antimicrobial agent. An aliquot of the final inoculum is also added to a compartment, containing only dried HEPES buffer, acting as a control. The inoculated multicompartment device (panel) is inserted in the autoSCAN®-W/A. The fluorescence of each compartment is measured at predetermined times and a Growth Index is calculated by dividing the fluorescence of the growth compartment by that of the negative control compartment.
^FL growth - ^FL control
(§2) If the value of the Growth Index is equal to or exceeds a specified value, the Minimum Inhibitory Concentration for every antimicrobial agent present in the multicompartment device is calculated. Otherwise the device is returned to its position and measured again at the next read time. The read times in this example are 3.5, 4.5, 5.5, 7.0, 8.0, 11.0, and 15.0 hours. For calculation of minimum inhibitory concentration, the percent fluorescence of compartments containing the different concentrations of the antimicrobial agent is calculated by subtracting from each compartment the fluorescence of the control well and dividing it by the delta fluorescence of the growth compartment, obtained by subtracting the fluorescence of the negative control compartment from the fluorescence of the growth compartment. The minimum inhibitory concentration is calculated using a mathematical model specific for each concentration range of the antimicrobial agent. Using a mathematical model based on discriminate functional analysis, the minimum inhibitory concentration of each antimicrobial agent, for the organism tested, can be determined. Utilization of a discriminate function analysis model in microbiological pattern recognition is described in S. Bascomb, Computers in Taxonomy and Systematics, p. 65-102 In T. N. Bryant and J. W. T. Wimpenny (Ed.), Computers in Microbiology, a Practical Approach (IRL Press, Oxford). In an alternative embodiment the minimum inhibitory concentration for each antimicrobial agent for the organism tested can be determined by a breakpoint or threshold method or linear regression analysis. J. McKie, et al., Antimicrobial Agents and Chemotherapy (1980) v. 17, 813-823.
(§3) In Example 1, the growth of Enterococcus faecalis in wells containing specified amounts of antimicrobial agents is estimated by measurement of fluorescence. In Table 6, the percent fluorescence at different concentrations of antimicrobial agents is reported. For example, 0.12, 0.25, 0.5, 1, 2, 4 and 8 μg/mL of ampicillin (Am) were present in the microdilution wells.
The numbers 105, 105, 67, 7, 6, 5, 6 are percent fluorescence values as calculated in […]. These figures are used to determine susceptibility according to the methods discussed on pages 12 and 13.

Enterococcus faecalis [2] = test: Minimum inhibitory concentration determination, Example 1 (Table 7); assay type: cell-based
Experimental: as §1, §2, §3
In Table 7, the minimum inhibitory concentration for Example 1 are reported.

[3] = Enterococcus faecalis, 1 μg/mL, read-out: percent fluorescence
[4] = Enterococcus faecalis, 2 μg/mL, read-out: percent fluorescence
[5] = Enterococcus faecalis, Table 7, Example 1, read-out: concentration at which organism was found to be resistant
[6] = Table 7, Enterococcus faecalis, Example 1, read-out: minimum inhibitory concentration
[7] = Enterococcus faecalis, read-out: percent fluorescence
[8] = Enterococcus faecalis, read-out: concentration at which organism was found to be susceptible
[9] = Enterococcus faecalis, read-out: minimum inhibitory concentration
[10] = Enterococcus faecalis, Table 7, Example 1, read-out: concentration at which organism was found to be susceptible
[11] = Enterococcus faecalis, 4 μg/mL, read-out: percent fluorescence
[12] = Enterococcus faecalis, 8 μg/mL, read-out: percent fluorescence
[13] = Enterococcus faecalis, 16 μg/mL, read-out: percent fluorescence

Compound | MIC (Enterococcus faecalis [2]; [6]) | activity at 1 µg/mL (Enterococcus faecalis [1]; [7]) | activity at 2 µg/mL (Enterococcus faecalis [1]; [7]) | activity at 4 µg/mL (Enterococcus faecalis [1]; [7]) | activity at 8 µg/mL (Enterococcus faecalis [1]; [7]) | MIC (Enterococcus faecalis [2]; [8]) | MIC (Enterococcus faecalis [2]; [9]) | activity at 8 µg/mL (Enterococcus faecalis [1]; [12]) | other results
CCC[C@@H]1C[C@@H](C(=O)N[C@@H]([C@H]2O[C@H](SC)[C@H](O)[C@@H](O)[C@H]2O)[C@H](C)Cl)N(C)C1 [Clindaimycin, Clindamycin] | > 2 µg/mL |  |  |  |  |  |  |  | activity at 1 µg/mL (Enterococcus faecalis [1]; [3]): 75%; activity at 2 µg/mL (Enterococcus faecalis [1]; [4]): 71%; activity at 5 µg/mL (Enterococcus faecalis [1]; Enterococcus faecalis, 5 μg/mL (printed 5Cd)): 83%; activity at 0.25 µg/mL (Enterococcus faecalis [1]; Enterococcus faecalis, .25 μg/mL, read-out: percent fluorescence): 88%; MIC (Enterococcus faecalis [2]; [5]): > 2 µg/mL
Gentamicin |  |  |  |  |  |  |  |  | percent fluorescence (Enterococcus faecalis [1]; 1 μg/mL): 105%; percent fluorescence (Enterococcus faecalis [1]; 2 μg/mL): 99%; percent fluorescence (Enterococcus faecalis [1]; 4 μg/mL): 95%; percent fluorescence (Enterococcus faecalis [1]; 6 μg/mL): 93%; percent fluorescence (Enterococcus faecalis [1]; 8 μg/mL): 93%
CN[C@@H]1[C@H](O[C@H]2[C@H](O[C@H]3[C@H](O)[C@@H](O)[C@H](N=C(N)N)[C@@H](O)[C@@H]3N=C(N)N)O[C@@H](C)[C@]2(O)C=O)O[C@@H](CO)[C@H](O)[C@H]1O [Streptomycin Synergy Screen] |  |  |  |  |  |  |  |  | percent fluorescence (Enterococcus faecalis [1]; synergy screen well): 5%; Streptomycin Synergy Screen result in Table 7 (Enterococcus faecalis [2]; Table 7, Enterococcus faecalis, Example 1): 5; susceptibility to synergy screen (Enterococcus faecalis [2]; Table 7, Example 1): susceptible
CC1(C)S[C@@H]2[C@H](NC(=O)Cc3ccccc3)C(=O)N2[C@H]1C(=O)O [Penicillin] |  | 93% | 12% | 7% | 7% |  |  |  | activity at 0.03 µg/mL (Enterococcus faecalis [1]; [7]): 99%; activity at 0.06 µg/mL (Enterococcus faecalis [1]; [7]): 104%; activity at 0.12 µg/mL (Enterococcus faecalis [1]; [7]): 105%; activity at 0.5 µg/mL (Enterococcus faecalis [1]; [7]): 105%; activity at 25 µg/mL (Enterococcus faecalis [1]; [7]): 105%
O=C(O)c1cn(C2CC2)c2cc(N3CCNCC3)c(F)cc2c1=O [Ciprofloxacin] |  | 6% | 6% | 6% |  | < 1 µg/mL | < 1 µg/mL |  | 
O=C1CN(/N=C/c2ccc([N+](=O)[O-])o2)C(=O)N1 [Nitrofurantoin] | < 32 µg/mL |  |  |  |  |  |  |  | activity at 32 µg/mL (Enterococcus faecalis [1]; Enterococcus faecalis): 86%; activity at 46 µg/mL (Enterococcus faecalis [1]; Enterococcus faecalis, 46 μg/mL (printed 46Fd)): 21%; MIC (Enterococcus faecalis [2]; [10]): < 32 µg/mL
CC[C@H]1OC(=O)[C@H](C)[C@@H](O[C@H]2C[C@@](C)(OC)[C@@H](O)[C@H](C)O2)[C@H](C)[C@@H](O[C@@H]2O[C@H](C)C[C@H](N(C)C)[C@H]2O)[C@](C)(O)C[C@@H](C)C(=O)[C@H](C)[C@@H](O)[C@]1(C)O [Erythromycin] |  | 5% | 5% | 4% |  | 4 µg/mL (≈ 5.45 µM) | 4 µg/mL (≈ 5.45 µM) |  | activity at 0.25 µg/mL (Enterococcus faecalis [1]; [7]): 59%; activity at 0.5 µg/mL (Enterococcus faecalis [1]; [7]): 9%
O=C(N[C@H](CO)[C@H](O)c1ccc([N+](=O)[O-])cc1)C(Cl)Cl [Chloramphenicol] |  |  |  | 9% | 6% | < 4 µg/mL | < 4 µg/mL |  | activity at 16 µg/mL (Enterococcus faecalis [1]; [7]): 4%
CO[C@H]1/C=C/O[C@@]2(C)Oc3c(C)c(O)c4c(O)c(c(/C=N/N5CCN(C)CC5)c(O)c4c3C2=O)NC(=O)/C(C)=C\C=C\[C@H](C)[C@H](O)[C@@H](C)[C@@H](O)[C@@H](C)[C@H](OC(C)=O)[C@@H]1C [Rifampin] |  | 58% | 21% |  |  | 2 µg/mL (≈ 2.43 µM) | 2 µg/mL (≈ 2.43 µM) |  | 
CN[C@H](CC(C)C)C(=O)N[C@H]1C(=O)N[C@@H](CC(N)=O)C(=O)N[C@H]2C(=O)N[C@H]3C(=O)N[C@H](C(=O)N[C@H](C(=O)O)c4cc(O)cc(O)c4-c4cc3ccc4O)[C@H](O)c3ccc(c(Cl)c3)Oc3cc2cc(c3O[C@@H]2O[C@H](CO)[C@@H](O)[C@H](O)[C@H]2O[C@H]2C[C@](C)(N)[C@H](O)[C@H](C)O2)Oc2ccc(cc2Cl)[C@H]1O [Vancomycin] |  |  | 5% | 5% | 5% | < 2 µg/mL | < 2 µg/mL |  | activity at 16 µg/mL (Enterococcus faecalis [1]; [7]): 2%
Cc1onc(-c2ccccc2)c1C(=O)N[C@@H]1C(=O)N2[C@@H]1SC(C)(C)[C@@H]2C(=O)O [Oxacillin] |  | 100% | 99% | 95% | 90% |  |  |  | activity at 0.25 µg/mL (Enterococcus faecalis [1]; [7]): 103%; activity at 0.5 µg/mL (Enterococcus faecalis [1]; [7]): 98%
CO/N=C(\C(=O)N[C@@H]1C(=O)N2C(C(=O)O)=C(COC(N)=O)CS[C@H]12)c1ccco1 [Cefuroxime] | > 16 µg/mL |  |  |  |  |  |  | 15% | activity at 2 µg/mL (Enterococcus faecalis [1]; [4]): 85%; activity at 4 µg/mL (Enterococcus faecalis [1]; [11]): 39%; activity at 16 µg/mL (Enterococcus faecalis [1]; [13]): 10%; MIC (Enterococcus faecalis [2]; [5]): > 16 µg/mL
CN(C)C1C(=O)C(C(N)=O)=C(O)C2(O)C(=O)C3=C(O)c4c(O)cccc4C(C)(O)C3CC12 (stereo not drawn) [Tetracycline] |  | 85% | 79% | 71% | 62% | 128 µg/mL (≈ 288 µM) | 128 µg/mL (≈ 288 µM) |  | activity at 0.5 µg/mL (Enterococcus faecalis [1]; [7]): 91%; activity at 128 µg/mL (Enterococcus faecalis [1]; [7]): 37%
CCn1cc(C(=O)O)c(=O)c2cc(F)c(N3CCNCC3)cc21 [Norfloxacin] | < 4 µg/mL |  |  |  |  |  |  | 6% | activity at 4 µg/mL (Enterococcus faecalis [1]; [11]): 6%; MIC (Enterococcus faecalis [2]; [10]): < 4 µg/mL
CC(=O)OCC1=C(C(=O)O)N2C(=O)[C@@H](NC(=O)Cc3cccs3)[C@H]2SC1 [Cephalothin, Cephalotin] |  |  |  |  | 103% | 16 µg/mL (≈ 40.4 µM) | 16 µg/mL (≈ 40.4 µM) |  | activity at 16 µg/mL (Enterococcus faecalis [1]; [7]): 7%
CO/N=C(\C(=O)N[C@@H]1C(=O)N2C(C(=O)O)=C(COC(C)=O)CS[C@H]12)c1csc(N)n1 [Cefotaxime] | > 4 µg/mL |  |  |  |  |  |  | 8% | activity at 4 µg/mL (Enterococcus faecalis [1]; [11]): 10%; activity at 16 µg/mL (Enterococcus faecalis [1]; [13]): 8%; activity at 32 µg/mL (Enterococcus faecalis [1]; Enterococcus faecalis): 7%; MIC (Enterococcus faecalis [2]; [10]): < 4 µg/mL
CO/N=C(\C(=O)N[C@@H]1C(=O)N2C(C(=O)O)=C(CSc3nc(=O)c(=O)[nH]n3C)CS[C@H]12)c1csc(N)n1 [Ceftriaxone] |  |  |  |  |  |  |  | 9% | activity at 4 µg/mL (Enterococcus faecalis [1]; [11]): 15%; activity at 16 µg/mL (Enterococcus faecalis [1]; [13]): 8%; activity at 32 µg/mL (Enterococcus faecalis [1]; Enterococcus faecalis): 7%
Cn1nnnc1SCC1=C(C(=O)O)N2C(=O)[C@@H](NC(=O)[C@H](O)c3ccccc3)[C@H]2SC1 [Cefamandole] | > 16 µg/mL |  |  |  |  |  |  | 104% | activity at 16 µg/mL (Enterococcus faecalis [1]; [13]): 105%; MIC (Enterococcus faecalis [2]; [5]): > 16 µg/mL
C[C@@H](O)[C@H]1C(=O)N2C(C(=O)O)=C(SCCN=CN)C[C@H]12 [Imipenem] | 4 µg/mL (≈ 13.4 µM) |  |  |  |  |  |  | 5% | activity at 1 µg/mL (Enterococcus faecalis [1]; [3]): 65%; activity at 2 µg/mL (Enterococcus faecalis [1]; [4]): 5%; activity at 4 µg/mL (Enterococcus faecalis [1]; [11]): 5%; MIC (Enterococcus faecalis [2]; [10]): 4 µg/mL (≈ 13.4 µM)
